Measurements taken from ChEMBL document CHEMBL1201862, “PubChem BioAssay data set” (2004).
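In this assay, cells in 96-well plates receive the compound at five concentrations for 48 hours. Endpoints are linearly interpolated between the surrounding concentrations. GI50 = concentration required for 50% inhibition of growth.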 Activity calls are given as the source filed them. Rule as the data show it: active = GI50 up to about 1.1 µM and inactive = higher.

What was measured:
Experiment in all cases: NCI-60 cell line screen, 48 h
HCT-15 = system: HCT-15
RXF 393 = system: RXF 393
PC-3 = system: PC-3
HL-60 = system: HL-60
HOP-92 = system: HOP-92
786-0 = system: 786-0
SF-268 = system: SF-268
ACHN = system: ACHN
SK-MEL-28 = system: SK-MEL-28
SK-OV-3 = system: SK-OV-3
LOX IMVI = system: LOX IMVI
OVCAR-4 = system: OVCAR-4
MDA-MB-231 = system: MDA-MB-231
RPMI-8226 = system: RPMI-8226
SN12C = system: SN12C
MDA-N = system: MDA-N
MOLT-4 = system: MOLT-4
CAKI-1 = system: CAKI-1
EKVX = system: EKVX
A498 = system: A498

SMILES	GI50 (HCT-15) [µM]	GI50 (RXF 393)	GI50 (PC-3)	GI50 (HL-60)	GI50 (HOP-92)	GI50 (786-0)	GI50 (SF-268)	GI50 (ACHN)	GI50 (SK-MEL-28)	GI50 (SK-OV-3)	GI50 (LOX IMVI)	GI50 (OVCAR-4)	GI50 (MDA-MB-231)	GI50 (RPMI-8226)	GI50 (SN12C)	GI50 (MDA-N)	GI50 (MOLT-4)	GI50 (CAKI-1)	GI50 (EKVX)	GI50 (A498)
CCOC(=O)Cn1c(=O)c2nc(SC)sc2n(-c2ccccc2)c1=S	52	21 µM (inactive)	26.2 µM (inactive)	32.3 µM (inactive)	4.8 µM (inactive)	12.1 µM (inactive)	32.4 µM (inactive)	13.9 µM (inactive)	96.6 µM (inactive)	22.7 µM (inactive)	94 µM (inactive)	15.3 µM (inactive)	22.3 µM (inactive)	> 100 µM (inactive)	35.9 µM (inactive)	40.8 µM (inactive)	> 100 µM (inactive)			
CN(C)CCCN1c2ccccc2CCc2cc([N+](=O)[O-])ccc21	18.5	12.6 µM (inactive)	16.7 µM (inactive)			15.2 µM (inactive)	14.7 µM (inactive)	16.3 µM (inactive)			14.4 µM (inactive)	17.7 µM (inactive)	14.9 µM (inactive)	18 µM (inactive)	16.1 µM (inactive)	15 µM (inactive)	15.8 µM (inactive)	15.5 µM (inactive)	20.3 µM (inactive)	12.8 µM (inactive)
CCOC(=O)c1cnc(-n2[nH]c3c(c2=O)CCCC3)[nH]c1=O	44.1		57.4 µM (inactive)	28.1 µM (inactive)	0.859 µM (active)	60 µM (inactive)	55.8 µM (inactive)	50.2 µM (inactive)	20.9 µM (inactive)	80.5 µM (inactive)		57.5 µM (inactive)	57.1 µM (inactive)	52.7 µM (inactive)	52.5 µM (inactive)	86.1 µM (inactive)	43 µM (inactive)	48.1 µM (inactive)	80.4 µM (inactive)	62.8 µM (inactive)
O=[N+]([O-])c1ccc(-c2cn(-c3ccc(Cl)cc3)cn2)cc1	> 100		> 100 µM (inactive)	> 100 µM (inactive)		16.6 µM (inactive)	14.2 µM (inactive)	31.6 µM (inactive)	> 100 µM (inactive)	11.6 µM (inactive)	56.4 µM (inactive)		27.2 µM (inactive)	89.5 µM (inactive)	41.3 µM (inactive)	> 100 µM (inactive)	> 100 µM (inactive)	> 100 µM (inactive)	32.7 µM (inactive)	40.7 µM (inactive)
COc1ccc(/N=c2/oc3ccccc3cc2C(N)=O)cc1	> 100	40.5 µM (inactive)	80 µM (inactive)	> 100 µM (inactive)	27.8 µM (inactive)	23.7 µM (inactive)	17.9 µM (inactive)	18.4 µM (inactive)	> 100 µM (inactive)	20 µM (inactive)	33.7 µM (inactive)		30.5 µM (inactive)	> 100 µM (inactive)	> 100 µM (inactive)	> 100 µM (inactive)	> 100 µM (inactive)	13.6 µM (inactive)	> 100 µM (inactive)	
COC(=O)[C@@]1(Cc2ccc(O)cc2)C[C@@H]2Cc3ccccc3N2N1	81.8		34.5 µM (inactive)		43.6 µM (inactive)	> 100 µM (inactive)	> 100 µM (inactive)	> 100 µM (inactive)	> 100 µM (inactive)	> 100 µM (inactive)	> 100 µM (inactive)	> 100 µM (inactive)	49.1 µM (inactive)	30.5 µM (inactive)	71 µM (inactive)	44.8 µM (inactive)	4.8 µM (inactive)	> 100 µM (inactive)	64.7 µM (inactive)	27.9 µM (inactive)
Clc1c(C(Cl)(Cl)Cl)nsc1N1CCCCC1	26.5	16.8 µM (inactive)	31 µM (inactive)	16.6 µM (inactive)		17.9 µM (inactive)	34 µM (inactive)	29.8 µM (inactive)	33 µM (inactive)	27.9 µM (inactive)	16.2 µM (inactive)	25.6 µM (inactive)	23.8 µM (inactive)	12.6 µM (inactive)	28 µM (inactive)	31 µM (inactive)	15.2 µM (inactive)	19.4 µM (inactive)	29.9 µM (inactive)	20 µM (inactive)
Cc1nc2ccccc2c(=O)n1/N=C/c1ccc(N(C)C)cc1	> 100		> 100 µM (inactive)	> 100 µM (inactive)	48.5 µM (inactive)	71.4 µM (inactive)	33.7 µM (inactive)	> 100 µM (inactive)	> 100 µM (inactive)	83.6 µM (inactive)	> 100 µM (inactive)	> 100 µM (inactive)	32.9 µM (inactive)	4.24 µM (inactive)	> 100 µM (inactive)	> 100 µM (inactive)	> 100 µM (inactive)	> 100 µM (inactive)	> 100 µM (inactive)	> 100 µM (inactive)
O=C(Cn1c2ccc(Br)cc2c2nc3ccccc3nc21)NNC(=O)NC1CCCCC1		78.2 µM (inactive)	37.7 µM (inactive)			44.3 µM (inactive)	45.5 µM (inactive)	> 100 µM (inactive)	45.2 µM (inactive)	50.7 µM (inactive)	41.4 µM (inactive)	13.8 µM (inactive)	30.1 µM (inactive)	> 100 µM (inactive)	52.8 µM (inactive)	44 µM (inactive)	25.2 µM (inactive)	30.3 µM (inactive)	65.8 µM (inactive)	> 100 µM (inactive)
CSc1c(C(=O)Nc2ccccc2)c(N)nn1-c1ccccc1	> 100	56.9 µM (inactive)	> 100 µM (inactive)	> 100 µM (inactive)		> 100 µM (inactive)	> 100 µM (inactive)		> 100 µM (inactive)	> 100 µM (inactive)	> 100 µM (inactive)	> 100 µM (inactive)	> 100 µM (inactive)	> 100 µM (inactive)	> 100 µM (inactive)	> 100 µM (inactive)	> 100 µM (inactive)	> 100 µM (inactive)	> 100 µM (inactive)	> 100 µM (inactive)
CN1/C(=C\N=O)C(C)(C)N(O)C1(C)C	> 100		> 100 µM (inactive)	> 100 µM (inactive)	> 100 µM (inactive)	> 100 µM (inactive)	> 100 µM (inactive)	> 100 µM (inactive)	> 100 µM (inactive)	> 100 µM (inactive)	> 100 µM (inactive)	> 100 µM (inactive)	> 100 µM (inactive)	> 100 µM (inactive)	> 100 µM (inactive)	> 100 µM (inactive)	> 100 µM (inactive)	> 100 µM (inactive)	> 100 µM (inactive)	
CC(=O)C1C(=O)C(=O)N(c2ccc([N+](=O)[O-])cc2)C1=O (stereo not drawn)	> 100	> 100 µM (inactive)	52.7 µM (inactive)	> 100 µM (inactive)	> 100 µM (inactive)	> 100 µM (inactive)	> 100 µM (inactive)	> 100 µM (inactive)	> 100 µM (inactive)	> 100 µM (inactive)	> 100 µM (inactive)	> 100 µM (inactive)	> 100 µM (inactive)		> 100 µM (inactive)	> 100 µM (inactive)	> 100 µM (inactive)	> 100 µM (inactive)	> 100 µM (inactive)	
